Assay results published in patent US11006595B2, “Rice cultivar designated ‘CL153’” (Board of Supervisors of Louisiana State University and …, priority 2016, dated 2021).

Tested on: ‘CL153’ rice plant
Assay: Herbicide tolerance and susceptibility of rice cultivar 'CL153'
Format: in vivo, Oryza sativa
Conditions: for resistance or sensitivity of ‘CL153’ to the herbicide: at levels of the herbicide that would normally inhibit the growth of a rice plant, partly actual observations, partly assumptions based on common ancestry with ‘CL161’; for resistance of ‘CL153’ to imidazolinone herbicides: general statement, profile essentially identical to ‘CL161’
Text: Among others, the herbicide tolerance and susceptibility characteristics of ‘CL153’ include or are expected to include the following.

Compound	resistance or sensitivity of ‘CL153’ to the herbicide	resistance of ‘CL153’ to imidazolinone herbicides
CC(C)C1(C)N=C(c2ncccc2C(=O)O)NC1=O (centres unmarked) [imazapyr]	resistant	
COC(=O)c1sccc1S(=O)(=O)NC(=O)Nc1nc(C)nc(OC)n1 [thifensulfuron methyl]	resistant	
COC(=O)c1ccccc1S(=O)(=O)NC(=O)Nc1nc(C)cc(C)n1 [sulfometuron methyl]	sensitive	
CCOC(=O)c1ccccc1S(=O)(=O)NC(=O)Nc1nc(Cl)cc(OC)n1 [chlorimuron ethyl]	sensitive	
COc1cc(OC)nc(NC(=O)NS(=O)(=O)c2ncccc2C(=O)N(C)C)n1 [nicosulfuron]	resistant	
COC(=O)c1ccccc1S(=O)(=O)NC(=O)Nc1nc(C)nc(OC)n1 [metsulfuron methyl]	resistant	
CCc1cnc(C2=NC(C)(C(C)C)C(=O)N2)c(C(=O)O)c1 (centres unmarked) [imazethapyr]	resistant	highly resistant
CCS(=O)(=O)c1cccnc1S(=O)(=O)NC(=O)Nc1nc(OC)cc(OC)n1 [rimsulfuron]	sensitive	
COC(=O)c1ccccc1S(=O)(=O)NC(=O)N(C)c1nc(C)nc(OC)n1 [tribenuron methyl]	resistant	
COCc1cnc(C2=NC(C)(C(C)C)C(=O)N2)c(C(=O)O)c1 (centres unmarked) [imazamox]	resistant	highly resistant
CC(C)C1(C)N=C(c2nc3ccccc3cc2C(=O)O)NC1=O (centres unmarked) [imazaquin]	resistant	
Cc1cnc(C2=NC(=O)C(C)(C(C)C)N2)c(C(=O)O)c1 (centres unmarked) [imazapic]	resistant	
